From patent EP4238553A1, “COMPOSITIONS AND METHODS FOR DELIVERING CLOFOCTOL” (priority 2022, dated 2023)
In brackets after ≈: the same amount, converted by molar mass.

Assays:
[1] = aerosol drug mass density (TAG aerosol trapped on filter, LC-MS); type: physicochemical; conditions: airflow 34 L per minute; for Collected mass of clofoctol in the trap: 1.416 L aerosol trapped
Protocol: The term "aerosol" refers to a suspension of fine solid particles or liquid droplets in a gas. The expression "(aerosol) drug mass density" refers to the mass of clofoctol per unit volume of aerosol. It is calculated by measuring the quantity of clofoctol in a determined volume of aerosol beforehand trapped.
(§1) The purity of a clofoctol-containing aerosol, and quantitation of clofoctol in this aerosol was determined using a method that involves forming the aerosol in a device through which an air flow is maintained, generally at a rate between 1 and 180 L/min. The gas flow carries the aerosol into one or more traps. After extraction from the trap, the trapped components from the aerosol are subjected to an analytical technique, such as liquid chromatography, that permits a determination of composition and purity. The liquid chromatography discussed above contains a detection system (i.e., detector). Such detection systems are well known in the art and include, for example, UV detectors and mass spectrometry detectors. Liquid chromatography-mass spectrometry is the preferred analytical technique.
Solutions containing 20 mg/g of clofoctol in various solvents were prepared. Aerosols were produced using a TAG (Vaporesso swag 2 with a coil resistance of 0.3 ohms) at different powers and an airflow of 34 L per minute. 1.416 L of emitted aerosol was trapped on a plastic filter. Clofoctol was then extracted from the filter and dosed by LC-MS to determine the drug mass density.

physchem = type: physicochemical; conditions: for solubility at 48 h / solubility at 120 h: organic solvent or mixture
Protocol: Solutions of clofoctol were prepared in different solvents: 100% PG, 85/15 PG/Gly, 70/30 PG/Gly, 50/50 PG/Gly. Solutions were sonicated then incubated at 65°C for 30 min, until complete dissolution of clofoctol. Then, the samples were incubated at RT under stirring for different times. For collection before analysis after determined incubation times, the solutions were centrifuged, then the supernatants were collected and diluted before LC-MS/MS analysis for clofoctol quantitation in samples.

[2] = characterization of aerosol particles by laser light scattering (Malvern Mastersizer X); type: physicochemical; conditions: air flow 20L/min
Protocol: The "median diameter" (D(v;0.5)) of an aerosol refers to the diameter for which half the particulate mass of the aerosol consists of particles with a diameter larger than the median diameter and half by particles with a diameter smaller than the median diameter. The median diameter is measured by laser light scattering using for example a Malvern Mastersizer X or any equivalent apparatus working on the same principle of laser light scattering.
The "span" of a volume-based size distribution is defined by Span = (D(v;0.9) - D(v;0.1)) / D(v;0.5) and gives an indication of how far the 10 percent and 90 percent points are apart, normalized by the midpoint.
The "volume concentration" is the volume of particles reported to the total volume of the aerosol expressed as a percentage. The volume concentration is measured by laser light scattering using for example a Malvern Mastersizer X or any equivalent apparatus working on the same principle of laser light scattering.
Solutions containing 10 mg/g or 20 mg/g of clofoctol in various solvents were prepared. Aerosols were produced using a TAG (Vaporesso swag 2 with a coil resistance of 0.3 ohms) at different powers. The flow of aerosol was generated using an air flow of 20L/min. A certain volume of emitted aerosol was passed through the laser beam of a granulometer, Mastersizer X from Malvern.

in vivo = experiment: in vivo; parameters: species or system Mice; conditions: mouse, inhaled or intranasal
Protocol: Mice (Charles River, Female CD-1, 20-23 g) were permitted water and food ad libitum during the experiment. Clofoctol was administrated by Nose-Only inhalation in a homemade inhalation chamber in part inspired by a previous described apparatus (ref. 6). Animals were acclimated to restraint during a week before the experiment started. Animals were exposed to an aerosol generated (using a TAG connected to the chamber: Vaporesso swag 2 with a coil resistance of 0.3 ohms) from a solution of 20 mg/g of clofoctol ([…]/Glycerin, 85/15) for a period of 15 min with a puff of 4.5 s every minute (with a power of 30W).
Blood and lungs (left lung) were sampled 5, 10, 15, 30, 60 and 120 minutes after the end of a single inhalation period (2 mice/sampling time). The blood was sampled in tubes with Lithium Heparin on ice and then the plasma was separated from the red cells by centrifugation and frozen (-80°C).
A known mass (approximately 15mg, weighed beforehand) of each lung was placed into a 'safe lock' microtube (2 mL). […]
The unknown lung concentrations of clofoctol were calculated from a calibration line produced in the same matrix (naive lung from 'vehicle' animals) and reprocessed in the same way as the samples (homogenization in ethanol).

[3] = clofoctol purity in the aerosol after thermal aerosol generation (LC-UV-MS); type: physicochemical; conditions: for Mean purity: mean of puffs 1 and 2
Protocol: as §1
Solutions containing 20 mg/g of clofoctol in various solvents were prepared. Aerosols were produced using a TAG (Vaporesso swag 2 with a coil resistance of 0.3 ohms) at different powers. The flow of aerosol was generated using an air flow of 20 L/min. One or two successive puffs of 2.5s each was (were) done for each condition. For each puff, a certain volume of emitted aerosol was trapped on a plastic filter. Clofoctol was then extracted from the filter and analysed by LC-UV-MS.

[4] = 20 mg/g clofoctol in 70/30 PG/Gly, TAG power 30 W
[5] = 20 mg/g clofoctol in 85/15 PG/Gly, TAG power 30 W
[6] = 20 mg/g clofoctol in 85/15 PG/Gly, TAG power 50 W
[7] = 20 mg/g clofoctol in 85/15 PG/Gly, TAG power 80 W
[8] = 20 mg/g clofoctol in 100% PG, TAG power 30 W
[9] = aerosol from 10 mg/g CFT in 85/15 PG/Gly, power 30 W
[10] = aerosol from 10 mg/g CFT in 85/15 PG/Gly, power 45 W
[11] = aerosol from 10 mg/g CFT in 85/15 PG/Gly, power 60 W
[12] = aerosol from 20 mg/g CFT in 70/30 PG/Gly, power 30 W
[13] = aerosol from 20 mg/g CFT in 85/15 PG/Gly, power 30 W
[14] = aerosol from 20 mg/g CFT in 100% PG, power 30 W

Drug mass density [1, 4]: 0.091 mg/L
Collected mass of clofoctol in the trap [1, 4]: 128.3 µg
Drug mass density [1, 5]: 0.096 mg/L
Collected mass of clofoctol in the trap [1, 5]: 135.8 µg
Drug mass density [1, 6]: 0.099 mg/L
Collected mass of clofoctol in the trap [1, 6]: 141.1 µg
Drug mass density [1, 7]: 0.071 mg/L
Collected mass of clofoctol in the trap [1, 7]: 100.5 µg
Drug mass density [1, 8]: 0.159 mg/L
Collected mass of clofoctol in the trap [1, 8]: 225.6 µg
solubility at 48 h (physchem; 50/50 pg/gly): 7.9 mM (≈ 2.89 mg/mL)
solubility at 120 h (physchem; 50/50 pg/gly): 6.7 mM (≈ 2.45 mg/mL)
solubility at 48 h (physchem; 70/30 pg/gly): 29.8 mM (≈ 10.9 mg/mL)
solubility at 120 h (physchem; 70/30 pg/gly): 28.1 mM (≈ 10.3 mg/mL)
solubility at 48 h (physchem; 85/15 pg/gly): 504 mM (≈ 184 mg/mL)
solubility at 120 h (physchem; 85/15 pg/gly): 147 mM (≈ 53.6 mg/mL)
solubility at 48 h (physchem; 100% pg): 489 mM (≈ 179 mg/mL)
solubility at 120 h (physchem; 100% pg): 441 mM (≈ 161 mg/mL)
maximum concentration achieved (physchem; 7200 min): about 15 % by weight
Mean diameter [2, 9]: 2.45 µm
Median diameter [2, 9]: 2.42 µm
Sauter diameter [2, 9]: 2.34 µm
Span [2, 9]: 0.519
Volume conc. [2, 9]: 0.0052%
Mean diameter [2, 10]: 2.40 µm
Median diameter [2, 10]: 2.38 µm
Sauter diameter [2, 10]: 2.30 µm
Span [2, 10]: 0.523
Volume conc. [2, 10]: 0.0027%
Mean diameter [2, 11]: 2.63 µm
Median diameter [2, 11]: 2.59 µm
Sauter diameter [2, 11]: 2.46 µm
Span [2, 11]: 0.635
Volume conc. [2, 11]: 0.0018%
Mean diameter [2, 12]: 2.89 µm
Median diameter [2, 12]: 2.87 µm
Sauter diameter [2, 12]: 2.76 µm
Span [2, 12]: 0.551
Volume conc. [2, 12]: 0.0020%
Mean diameter [2, 13]: 2.41 µm
Median diameter [2, 13]: 2.38 µm
Sauter diameter [2, 13]: 2.30 µm
Span [2, 13]: 0.543
Volume conc. [2, 13]: 0.0016%
Mean diameter [2, 14]: 2.78 µm
Median diameter [2, 14]: 2.75 µm
Sauter diameter [2, 14]: 2.66 µm
Span [2, 14]: 0.521
Volume conc. [2, 14]: 0.0038%
Tmax (in vivo): ≤ 5 min
Mean purity ([3]; aerosol from 20 mg/g clofoctol in 70/30 PG/Gly, power 30 W): 100.0%
Purity CFT ([3]; aerosol from 20 mg/g clofoctol in 70/30 PG/Gly, power 30 W, puff number 1): 100.0%
Purity CFT ([3]; aerosol from 20 mg/g clofoctol in 70/30 PG/Gly, power 30 W, puff number 2): 100.0%
Mean purity ([3]; aerosol from 20 mg/g clofoctol in 70/30 PG/Gly, power 80 W): 91.0%
Purity CFT ([3]; aerosol from 20 mg/g clofoctol in 70/30 PG/Gly, power 80 W, puff number 1): 91.4%
Purity CFT ([3]; aerosol from 20 mg/g clofoctol in 70/30 PG/Gly, power 80 W, puff number 2): 90.6%
Mean purity ([3]; aerosol from 20 mg/g clofoctol in 100% PG, power 30 W): 100.0%
Purity CFT ([3]; aerosol from 20 mg/g clofoctol in 100% PG, power 30 W, puff number 1): 100.0%
Purity CFT ([3]; aerosol from 20 mg/g clofoctol in 100% PG, power 30 W, puff number 2): 100.0%
Mean purity ([3]; aerosol from 20 mg/g clofoctol in 100% PG, power 80 W): 87.4%
Purity CFT ([3]; aerosol from 20 mg/g clofoctol in 100% PG, power 80 W, puff number 1): 92.0%
Purity CFT ([3]; aerosol from 20 mg/g clofoctol in 100% PG, power 80 W, puff number 2): 82.7%
SMILES: CC(C)(C)CC(C)(C)c1ccc(O)c(Cc2ccc(Cl)cc2Cl)c1 [clofoctol, 2-[(2,4-dichlorophenyl)methyl]-4-(2,4,4-trimethylpentan-2-yl)phenol]
